These results are taken from US9296710B2, “Bicyclo (3.1.0) hexane-2, 6-dicarboxylic acid derivatives as mGlu2 receptor agonist” (Eli Lilly and Company, priority 2011, dated 2016).

Molecules are shown by their SMILES. Where a name gives a salt, the structure may show the parent alone.

The target in assay [1] is T1, PepT1 (Homo sapiens, UniProt P46059).
T1 construct: expressed in transfected cells; host or cells: HeLa cells (ATCC), transient transfection with FUGENE6
T1 sequence (P46059 1-708): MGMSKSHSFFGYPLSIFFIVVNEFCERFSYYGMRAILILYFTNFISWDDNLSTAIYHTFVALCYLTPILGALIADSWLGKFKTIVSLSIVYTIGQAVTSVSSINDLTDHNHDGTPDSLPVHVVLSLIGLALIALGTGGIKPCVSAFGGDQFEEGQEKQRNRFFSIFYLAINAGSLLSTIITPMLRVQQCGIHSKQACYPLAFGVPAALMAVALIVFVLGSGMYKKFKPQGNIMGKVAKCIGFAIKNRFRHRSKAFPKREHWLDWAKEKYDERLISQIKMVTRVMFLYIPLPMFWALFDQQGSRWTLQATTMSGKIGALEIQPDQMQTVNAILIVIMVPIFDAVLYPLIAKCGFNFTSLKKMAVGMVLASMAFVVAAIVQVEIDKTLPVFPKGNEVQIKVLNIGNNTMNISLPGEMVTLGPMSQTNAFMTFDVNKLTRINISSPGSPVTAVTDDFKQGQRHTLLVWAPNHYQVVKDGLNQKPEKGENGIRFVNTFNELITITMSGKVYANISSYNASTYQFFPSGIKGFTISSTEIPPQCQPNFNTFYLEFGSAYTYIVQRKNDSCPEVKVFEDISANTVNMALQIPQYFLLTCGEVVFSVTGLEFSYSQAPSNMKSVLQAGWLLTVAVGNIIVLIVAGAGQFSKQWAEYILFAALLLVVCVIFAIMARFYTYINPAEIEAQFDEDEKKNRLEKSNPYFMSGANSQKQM
The experiment in a line: In Vitro PepT1 GlySar Inhibition Screen. The format is cell-based. Conditions: for GlySar uptake inhibition, mean values ± standard deviation (controls): negative and positive controls run in parallel, n=18-19; for inhibition at 5000 µM: prodrug at 5 mM, pH 6.0, PepT1 transiently transfected HeLa cells, 5 μM [14C]Gly-Sar and 20 μM cold Gly-Sar, read-out: Mean GlySar Uptake Inhibition %. As for the experimental part: PepT1 assays are established to examine the ability of the amino acid prodrug compounds to interact with the intestinal absorption transporter PepT1.
HeLa cells, derived from human cancer cells, (American Type Culture Collection) are grown in Hyclone Medium (Invitrogen, Cat# SH30243) containing 10% fetal bovine serum (FBS), 0.1 mM non essential amino acids (NEAA), and 100 units/mL penicillin with 100 μg/mL streptomycin at 37° C. in a 5% CO2 humidified atmosphere. The cell line is used for up to 40 passages and then discarded. Frozen cells in 1 mL vials are thawed in water bath for 1-2 minutes and added to 5 mL of cell medium at 37° C. Each of the T-flasks is provided with 8.5 mL of the fresh medium and 1.5 mL of the cell stock. Cells are passaged twice during a week. […] Each new flask receives a combination of 8.5 mL of fresh medium and 1.5 mL of cell stock, in order to obtain 1:6 cell dilution. Cells are incubated at 37° C., until ready for the uptake study.
Cells that are 70-80% confluent in the T-flasks are plated 1 day prior to the transfection procedure. The flask with the cell stock is treated with PBS-EDTA and trypsin to detach the cells, and transfection medium is used from this point. Transfection medium consists of Dulbecco's Modified Eagle Medium (DMEM)+NEAA. To each well, 0.5 mL of the cell mixture is added (1.3×10^5 is the desired cell concentration) and the cells are incubated at 37° C. overnight. Twenty four hours before the assay, cells are transfected with PEPT1. Transfection mixture is prepared by mixing 600 μL of serum free transfection medium, 18 μL of FUGENE6® (Roche Diagnostics), and 11 μg of the PepT1 DNA. The transfection reagent-DNA complex is incubated for 20 minutes and 24 μL of the reagent-DNA complex is added to each well.
Inhibition of PEPT1-mediated [glycyl-1-2-^14C]Glyclysarcosine (GlySar) uptake activity is measured in the cells cultured in the 24-well plates 24-hours post transfection as previously published (Zhang et al. 2004. J. Pharm. Exper Ther. 310:437-445). To measure the ability of a compound of the present invention to inhibit the uptake of [^14C]Gly-Sar, prodrug compounds are incubated with 80 to 90% confluent PepT1 transiently transfected HeLa cells at 5 mM in pH 6.0 uptake medium in the presence of 5 μM [^14C]Gly-Sar (Moravek Biochemicals) and 20 μM cold Gly-Sar. Uptake media consists of 140 mM NaCl, 5.4 mM KCl, 1.8 mM CaCl2, 0.8 mM MgSO4, 5 mM Glucose, 25 mM tris(hydroxymethyl)aminomethane buffer (TRIS). The solution is then brought to pH 6.0 using 2-(N-morpholino)ethanesulfonic acid. The incubation volume is 500 μL and is performed at room temperature for 3 minutes. To stop the uptake at the conclusion of the incubation time, the uptake media is aspirated off of the cell monolayer and 500 μL of ice cold PBS added to the well. The cells are washed 3 times with 500 μL of room temperature PBS without Ca^+2 and Mg^+2. The cells are then lysed with 300 μL of 1% TRITON® X100 H2O solution. A 200 μL aliquot is removed and radioactivity is determined by liquid scintillation counting to measure the [^14C]Gly-Sar present in each of the incubation wells. A no inhibitor control is established and the percent inhibition of each prodrug is calculated with respect to this control.

Assay [2] has as its system PCP-induced hyperlocomotor activity in mice. The experiment in a line: Reversal of Phencyclidine (PCP)-Induced Hyperlocomotor Activity in Mice. The format is in vivo, mouse. To be noted: Mus musculus, i.p. administration, 30 minutes prior to 7.5 mg/kg PCP. An excerpt:
This assay for Reversal of Phencyclidine (PCP)-Induced Hyperlocomotor Activity in Mice is run substantially as the Reversal of Phencyclidine (PCP)-Induced Hyperlocomotor Activity in Rats assay provided above, using mice instead of rats and with the changes noted below.
Motor activity is monitored by placing individual male, ICR (CD-1), (Harlan, Indianapolis, Ind.) mice in transparent, plastic shoe-box cages of the dimensions 45×25×20 cm, with 0.5 cm depth of wood chips as bedding, and plastic lid on top of the cage. Motor monitors (Kinder Scientific) consist of a rectangular rack of 12 photobeams arranged in an 8×4 formation, (or a high density grouping of 22 in a 15×7 pattern) at a height of 2.5 cm. The shoe box cage is placed inside of these racks, with the racks on a 3 foot high tabletop in an isolated room. A compound of the present invention is dosed (intraperitoneal route, non-prodrug) usually within a range of 0.3-30 mg/kg; though higher doses may be used, 30 minutes prior to a 7.5 mg/kg challenge dose of phencyclidine (PCP). On the test day, mice are placed in the test cage and allowed to acclimate for 45 minutes prior to PCP challenge; mice are monitored for an additional 60 minutes following PCP administration.
Power analyses have determined that 7-8 mice per group are needed to have appropriate statistical power for detecting treatment differences (power=0.8).

For assay [3], the target named is T2, human mGlu2 receptor (Homo sapiens, UniProt Q14416).
T2 construct: expressed in transfected cells; host or cells: AV-12 cells (Syrian hamster fibroblasts), co-transfected with rat EAAT1 and Galpha15
Put plainly: Human mGlu2 Agonist FLIPR Assay. Format: cell-based. To be noted: for Emax: percent stimulation relative to maximal glutamate response (100 μM glutamate), read-out: Relative % Efficacy. An excerpt:
AV-12 cell lines, derived from Syrian Hamster fibroblasts and stably expressing the human mGlu2 receptor and co-transfected with the rat glutamate transporter EAAT 1 (Excitatory Amino Acid Transporter 1) and the Gα15 subunit, are used for these studies. The expression of Gα15 allows Gi-coupled receptors to signal through the phospholipase C pathway, resulting in the ability to measure receptor activation by a fluorometric calcium response assay. The cell lines are maintained by culturing in Dulbecco's Modified Eagle's Medium (DMEM) with high glucose and pyridoxine hydrochloride supplemented with 5% dialyzed fetal bovine serum, 1 mM sodium pyruvate, 10 mM HEPES [4-(2-hydroxyethyl)-1-piperazineethanesulfonic acid], 1 mM of L-glutamine, and 5 μg/mL blasticidin (all media are purchased from Invitrogen). Confluent cultures are passaged biweekly using an enzyme-free dissociation solution (Chemicon S-004-B).
Intracellular calcium levels are monitored before and after the addition of compounds using a Fluorometric Imaging Plate Reader (FLIPR®, Molecular Devices). The assay buffer is comprised of Hank's Buffered Salt Solution (HBSS; Sigma) supplemented with 20 mM HEPES. […] The dye solution is removed and replaced with fresh assay buffer (50 μL per well). […] Results are analyzed using PRISM® v4.03 (GraphPad Software). […] Exemplified compounds of the present invention are solubilized as 10 mM stocks in 0.1N NaOH and stored at −20 C. They are diluted through a three-fold dilution series into assay buffer. After taking an initial 5-sec fluorescent read on the FLIPR® instrument, a compound of the present invention is added to the cell plate (50 μL per well). Data are collected every second for the first 30 seconds and then every 3 seconds for a total of 90 seconds in order to detect agonist activity. The maximal response is defined as that induced by ECmax (100 μM glutamate). The compound effect is measured as maximal minus minimal peak heights in relative fluorescent units (RFUs) corrected for basal fluorescence measured in the absence of glutamate. Determinations are carried out using single plates. Agonist effects are quantified as percent stimulation induced by compound alone relative to the maximal glutamate response. All data are calculated as relative EC50 values using a four-parameter logistic curve fitting program (ACTIVITY BASE® v5.3.1.22).

In assay [4] the test system is immobility in forced swim test in mice. Put plainly: Forced Swim Test in Rodents (mice). Format: in vivo, mouse. Conditions: intraperitoneal dosing 60 min prior to testing. Here is the method:
In this assay, mechanisms with purported antidepressant-like activity decrease immobility in a brief inescapable forced swim episode.
The forced-swim test was conducted in mice (male, NIH-Swiss mice, 20-25 g, Harlan Sprague-Dawley, Indianapolis, Ind.). Mice are placed in clear plastic cylinders (diameter 10 cm; height: 25 cm) filled to 6 cm with 22-25° C. water for six min. The duration of immobility is recorded during the last 4 min of a six-minute trial. The compounds of Examples 2, 3, 8, 11, and 12 are tested following intraperitoneal dosing, 60 min prior to testing. Imipramine is used as a positive control for these studies. Compounds are formulated in a water vehicle, with minimal NaOH added. The amount of time spent immobile (defined as movements only necessary to keep the subject's head above water) is the dependent measure and recorded by an observer blinded to the drug treatment of the subjects. Data are analyzed by post-hoc Dunnett's test with alpha level set at 0.05.

T2 sequence (Q14416 19-872): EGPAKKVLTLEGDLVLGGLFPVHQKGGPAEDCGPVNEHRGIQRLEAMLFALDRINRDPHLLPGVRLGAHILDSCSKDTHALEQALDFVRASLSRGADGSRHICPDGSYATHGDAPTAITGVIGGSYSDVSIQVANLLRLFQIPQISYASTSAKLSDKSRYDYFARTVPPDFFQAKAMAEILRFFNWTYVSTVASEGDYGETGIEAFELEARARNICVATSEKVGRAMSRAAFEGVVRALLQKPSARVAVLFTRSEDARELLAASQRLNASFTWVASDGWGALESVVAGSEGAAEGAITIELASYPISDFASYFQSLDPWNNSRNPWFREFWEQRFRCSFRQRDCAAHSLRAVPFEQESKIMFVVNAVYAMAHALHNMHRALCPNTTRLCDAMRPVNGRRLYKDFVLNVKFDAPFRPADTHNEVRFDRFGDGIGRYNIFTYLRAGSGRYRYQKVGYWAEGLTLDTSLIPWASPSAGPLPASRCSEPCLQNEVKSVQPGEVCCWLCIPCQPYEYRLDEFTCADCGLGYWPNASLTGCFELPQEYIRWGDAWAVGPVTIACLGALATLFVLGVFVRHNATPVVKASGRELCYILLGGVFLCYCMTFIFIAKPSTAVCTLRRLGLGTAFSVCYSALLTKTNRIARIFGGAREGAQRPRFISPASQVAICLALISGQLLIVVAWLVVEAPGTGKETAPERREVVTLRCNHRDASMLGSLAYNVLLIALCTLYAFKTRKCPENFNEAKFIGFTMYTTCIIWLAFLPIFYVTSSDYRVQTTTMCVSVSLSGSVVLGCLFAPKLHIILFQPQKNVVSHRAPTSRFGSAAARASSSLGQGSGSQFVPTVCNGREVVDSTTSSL

Consider `CC1=C(C(=O)O)N2C(=O)[C@@H](NC(=O)[C@H](N)c3ccc(O)cc3)[C@H]2SC1` [Cefadroxil, reference compound], for which the “GlySar uptake inhibition, mean values ± standard deviation (controls)” value in assay [1] came out at 53.2±13.2%.
Take `Cl.N[C@@]1(C(=O)O)C[C@@H](Sc2cn[nH]n2)[C@H]2[C@H](C(=O)O)[C@H]21` [Example 1, (1R,2S,4R,5R,6R)-2-Amino-4-(2H-[1,2,3]triazol-4-ylsulfanyl)-bicyclo[3.1.0]hexane-2,6-dicarboxylic acid hydrochloride]: the ED50 in assay [2] stood at 18.4 mg/kg. In assay [3] (hMGLUR2 FLIPR assay, AV-12 cells expressing human mGlu2, calcium response, read-out: Relative EC50), the EC50 came out at 46 nM. Also, the Emax in assay [3] amounted to 92.6%.
Take `Cl.N[C@@]1(C(=O)O)C[C@@H](Sc2nnc(C(F)(F)F)[nH]2)[C@H]2[C@H](C(=O)O)[C@H]21` [Example 2, (1R,2S,4R,5R,6R)-2-Amino-4-(5-trifluoromethyl-1H-[1,2,4]triazol-3-ylsulfanyl)-bicyclo[3.1.0]hexane-2,6-dicarboxylic acid hydrochloride]: in assay [2], the ED50 worked out at 14.4 mg/kg. In addition, in assay [3], the Emax stood at 78.5%.
Regarding `Nc1nnc(S[C@@H]2C[C@@](N)(C(=O)O)[C@@H]3[C@@H](C(=O)O)[C@@H]32)[nH]1` [Example 3, (1R,2S,4R,5R,6R)-2-Amino-4-(5-amino-[1,3,4]triazol-2-ylsulfanyl)-bicyclo[3.1.0]hexane-2,6-dicarboxylic acid], in assay [2], the ED50 came to 17.1 mg/kg. In addition, the “ED60 (60% of the amount of immobility relative to vehicle controls)” value in assay [4] was < 3 mg/kg.
As to `N[C@@]1(C(=O)O)C[C@H](Sc2n[nH]c(C(F)(F)F)n2)[C@H]2[C@H](C(=O)O)[C@H]21` [Example 12, (1R,2S,4S,5R,6R)-2-Amino-4-[[5-(trifluoromethyl)-1H-1,2,4-triazol-3-yl]sulfanyl]bicyclo[3.1.0] hexane-2,6-dicarboxylic acid hydrochloride], in assay [3], the Emax was 92.1%.
On to `C[C@H](N)C(=O)N[C@@]1(C(=O)O)C[C@@H](Sc2nnc(C(F)(F)F)[nH]2)[C@H]2[C@H](C(=O)O)[C@H]21` [Example 16, (1R,2S,4R,5R,6R)-2-[[(2S)-2-Aminopropanoyl]amino-4-[[5-(trifluoromethyl)-1H-1,2,4-triazol-3-yl]thio]bicyclo[3.1.0]hexane-2,6-dicarboxylic acid hydrochloride], for which, in assay [1], the inhibition at 5000 µM is 53.9%.
For the compound `NCC(=O)N[C@@]1(C(=O)O)C[C@H](Sc2nnc[nH]2)[C@H]2[C@H](C(=O)O)[C@H]21` [Example 22, (1R,2S,4S,5R,6R)-2-[(-2-Aminoacetyl)amino]-4-(4H-1,2,4-triazol-3-ylsulfanyl)bicyclo[3.1.0]hexane-2,6-dicarboxylic acid hydrochloride], the inhibition at 5000 µM in assay [1] was 46.7%.
Turning to `CC(C)C[C@H](N)C(=O)N[C@@]1(C(=O)O)C[C@H](Sc2nnc[nH]2)[C@H]2[C@H](C(=O)O)[C@H]21` [Example 24, (1R,2S,4S,5R,6R)-2-(L-leucylamino)-4-(4H-1,2,4-triazol-3-ylsulfanyl)bicyclo [3.1.0]hexane-2,6-dicarboxylic acid hydrochloride], in assay [1], the inhibition at 5000 µM came out at 47.1%.
In the case of `NCC(=O)O` [Glycine, reference compound], in assay [1], the “GlySar uptake inhibition, mean values ± standard deviation (controls)” value was 10.1±9.5%.

Usually ED50 stands for the dose at which the effect has come halfway, by size or by number of responders. Broadly, the EC50 is the concentration giving half of the maximal effect. The inhibition is the change of the read-out against control, counted positive when it falls.
